Three compounds from patent US20200038399A1, “FORMULATIONS, METHODS, KIT, AND DOSAGE FORMS FOR TREATING BACTERIAL INFECTION” (Motif BioSciences Inc., priority 2016, published 2020) can be followed below.

Read-outs that look alike come from different tables or passages of the source.

The test system of assay [1] is S. aureus 101. Briefly: MIC determination. It counts as cell-based, Staphylococcus aureus. Put shortly: (§1)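 K. pneumoniae and S. aureus grew in cation-adjusted Mueller-Hinton broth in ambient air. H. influenzae used Haemophilus test medium (MHB, yeast extract, NAD, hematin) and M. catarrhalis used Brain Heart Infusion, both under 5% CO2.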
The subject of assay [2] is S. pneumoniae 1/1. Briefly: MIC determination. The class given is cell-based, Streptococcus pneumoniae. The following applies: Streptococcus pneumoniae, read-out: Minimum inhibitory concentrations (MIC).
The test system of assay [3] is Haemophilus influenzae ATCC 49766. Briefly: MIC determination. It counts as cell-based. As to conditions: Haemophilus influenzae, read-out: Minimum inhibitory concentrations (MIC). The procedure, abridged:
as §1

For assay [4], the system named is Klebsiella pneumoniae ATCC 33495. The experiment in a line: MIC determination. The following applies: Klebsiella pneumoniae, read-out: Minimum inhibitory concentrations (MIC). It counts as cell-based. The procedure, abridged:
as §1

Assay [5] deals with Moraxella catarrhalis RA 21. Briefly: MIC determination. It counts as cell-based. The following applies: Moraxella catarrhalis, read-out: Minimum inhibitory concentrations (MIC). The procedure, abridged: as §1
The subject of assay [6] is Staphylococcus aureus ATCC 25923. The experiment in a line: MIC determination. It counts as cell-based. The following applies: Staphylococcus aureus, read-out: Minimum inhibitory concentrations (MIC). The procedure, abridged: as §1
Assay [7] concerns Streptococcus pneumoniae ATCC 49619. The experiment in a line: MIC determination. The class given is cell-based. The following applies: Streptococcus pneumoniae, read-out: Minimum inhibitory concentrations (MIC).
Assay [8] deals with Haemophilus influenzae ATCC 49766. Briefly: checkerboard synergy assay with iclaprim. The class given is cell-based. As to conditions: antibiotic in combination with iclaprim; H. influenzae 49766.
Assay [9] concerns Klebsiella pneumoniae ATCC 33495. Briefly: checkerboard synergy assay with iclaprim. The class given is cell-based. The following applies: antibiotic in combination with iclaprim; K. pneumoniae 33495.
Assay [10] concerns Moraxella catarrhalis RA 21. The experiment in a line: checkerboard synergy assay with iclaprim. The class given is cell-based. As to conditions: antibiotic in combination with iclaprim; M. catarrhalis RA 21.
For assay [11], the system named is Staphylococcus aureus ATCC 25923. The experiment in a line: checkerboard synergy assay with iclaprim. The class given is cell-based. As to conditions: antibiotic in combination with iclaprim; S. aureus 25923.
Assay [12] concerns Streptococcus pneumoniae ATCC 49619. Briefly: checkerboard synergy assay with iclaprim. It counts as cell-based. As to conditions: antibiotic in combination with iclaprim; S. pneumoniae 49619.
The test system of assay [13] is S. aureus 101. The experiment in a line: checkerboard synergy assay with iclaprim. It counts as cell-based, Staphylococcus aureus. As to conditions: antibiotic in combination with iclaprim.
In assay [14] the test system is S. pneumoniae 1/1. Briefly: checkerboard synergy assay with iclaprim. It counts as cell-based, Streptococcus pneumoniae. The following applies: antibiotic in combination with iclaprim.
[15] abbreviates: Staphylococcus aureus, 101, 18 h; read-out: Minimum inhibitory concentrations (MIC).
The mark [16] stands for this setting: S. pneumoniae 1/1, 18 hours at 37° C., 5% CO2.
The mark [17] stands for this setting: ATCC33495, K. pneumonia 33495, 18 hours at 37° C.
The mark [18] stands for this setting: RA21, M. catarrhalis RA 21, 18 hours at 37° C., 5% CO2.
Setting [19] is: ATCC25923, S. aureus 25923, 18 hours at 37° C.
Setting [20] is: ATCC49619, S. pneumoniae 49619, 18 hours at 37° C., 5% CO2.

With `[H]/N=C(/N)N[C@H]1[C@H](O)[C@@H](O)[C@H](O[C@@H]2O[C@@H](C)[C@](O)(C=O)[C@H]2O[C@@H]2O[C@@H](CO)[C@H](O)[C@@H](O)[C@@H]2NC)[C@@H](N/C(N)=N\[H])[C@@H]1O` [Streptomycin], the MIC in the assay on S. aureus 101 [1] (setting [15]) was 8 µg/mL; in the assay on S. pneumoniae 1/1 [2] (setting [16]), > 128 µg/mL; in assay [3] (ATCC49766, H. Influenza 49766, 18 hours at 37° C., 5% CO2), 0.5 µg/mL; in assay [4] (setting [17]), 64 µg/mL; in assay [5] (setting [18]) it was 8 µg/mL; in assay [6] (setting [19]) it was 4 µg/mL. The MIC in assay [7] (setting [20]) worked out at 32 µg/mL. The “Con (Conclusion)” value in [8] was “Ind (Indifference (Ind))”; in [9], “Ad (Additivity (Ad))”; in [10], “Ind (Indifference (Ind))”. Besides, the “Σ FIC” value in [8] was 1.02-1.50; in assay [9], 0.63-1.06; in assay [10], 1.06-1.50; in assay [11] it was 1.13-1.50; in [12] it was 1.00-1.25; in the assay with S. aureus 101 [13], 1.13-1.50. Besides, the “Σ FIC” value in the assay on S. pneumoniae 1/1 [14] was 1.01-1.50.

With `CN(C)[C@@H]1C(O)=C(C(N)=O)C(=O)[C@@]2(O)C(O)=C3C(=O)c4c(O)cccc4[C@@](C)(O)[C@H]3C[C@@H]12` [Tetracycline, Tetracyclin], the MIC came to 128 µg/mL in the assay with S. aureus 101 [1] (setting [15]); 16 µg/mL with S. pneumoniae 1/1 [2] (setting [16]); 0.5 µg/mL in assay [3] (ATCC49766, 18 h); 128 µg/mL in assay [4] (setting [17]); 0.25 µg/mL in [5] (setting [18]); 0.5 µg/mL in assay [6] (setting [19]). The MIC in assay [7] (setting [20]) is 0.25 µg/mL. For the same compound, the results for the “Con (Conclusion)” value in [8], in assay [9] and in [10] were “Ad (Additivity (Ad))”, “Ad (Additivity (Ad))” and “Ind (Indifference (Ind))”, respectively. The “Σ FIC” value in [8] is 0.56-1.25; in [9], 0.56-1.03; in [10], 1.13-1.50; in assay [11], 2.05-2.48; in assay [12], 0.75-1.25; in the assay with S. aureus 101 [13], 1.02-2.50. The “Σ FIC” value in the assay on S. pneumoniae 1/1 [14] is recorded as 0.75-1.13.

Consider `C=C(NC(=O)C(=C)NC(=O)c1csc(C2=N[C@@H]3c4csc(n4)[C@H]4NC(=O)c5csc(n5)[C@H]([C@](C)(O)[C@@H](C)O)NC(=O)[C@H]5CSC(=N5)/C(=C/C)NC(=O)[C@H]([C@@H](C)O)NC(=O)c5csc(n5)[C@]3(CC2)NC(=O)[C@H](C)NC(=O)C(=C)NC(=O)[C@H](C)NC(=O)[C@H]([C@@H](C)CC)N[C@@H]2C=Cc3c([C@H](C)O)cc(nc3[C@H]2O)C(=O)O[C@@H]4C)n1)C(N)=O` [Thiostrepton], for which the MIC in the assay with S. aureus 101 [1] (Staphylococcus aureus, 101, 18 h, read-out: Minimum inhibitory concentrations (MIC)) is 0.5 µg/mL; with S. pneumoniae 1/1 [2] (1/1, 18 h) it was 0.063 µg/mL; in assay [3] (ATCC49766, 18 h), 32 µg/mL; in assay [4] (ATCC33495, 18 h), > 128 µg/mL; in [5] (RA21, 18 h), 0.5 µg/mL; in assay [6] (ATCC25923, 18 h) it was 0.5 µg/mL. Further, the MIC in [7] (ATCC49619, 18 h) was found to be 0.063 µg/mL. Further, the “Con (Conclusion)” value in assay [8], in assay [9] and in assay [10] was “Ind (Indifference (Ind))” each time. Also, the “Σ FIC” value in [8] is listed as 1.02-1.50; in [9], 1.01-1.50; in assay [10], 1.02-1.50; in assay [11], 1.02-1.50; in assay [12] it was 1.12-1.50; with S. aureus 101 [13] it was 1.50-2.25. Moreover, the “Σ FIC” value in the assay with S. pneumoniae 1/1 [14] is 1.12-1.50.
